Reference: patent US20250346629A1, “USE OF D-ENANTIOMERIC PEPTIDE LIGANDS OF MONOMERIC ALPHA-SYNUCLEIN FOR THE THERAPY OF VARIOUS SYNUCLEINOPATHIES” (PRIAVOID GMBH, priority 2021, published 2025)
Square brackets hold non-standard residues; d marks the D form. Peptide text beside a SMILES is read from it.

Legend:
[1] = Solubility of D-peptides in buffer (UV-vis of supernatant after centrifugation); format: physicochemical; conditions: different buffers including PBS, aqueous buffer; different buffer conditions including PBS pH 7.4; 1 h at 37° C., 20 800×g centrifugation; read-out: starting concentration up to which the compound remained completely in the supernatant
Source text: D-enantiomeric peptides with C-terminal amidation were acquired from CASLO (CASLO, DK) as a lyophilized chloride salt powder having a purity of >95%.

[2] = tested on: αSynA53T-YFP cells (HEK293T); assay: Cell assay for seeded α-synuclein aggregation (FIG. 19); format: cell-based, human; conditions: seeded with 30 nM PFF oligomers, day 3, two-stage transfection
Experimental: A construct encoding full-length A53T-mutated human α-syn and fused with YFP at the C-terminus was synthesized and introduced into the pMK-RQ expression vector (GeneArt; Thermo Fisher Scientific, USA). The α-synA53T-YFP construct was sub-cloned using the restriction sites NheI (5′) and NotI (3′) in the vector pIRESpuro3 (Clontech; Takara Bio, JPN). HEK293T cells (American Type Culture Collection) were cultured in high-glucose Dulbecco's Modified Eagle's Medium (DMEM; Sigma-Aldrich, USA) which had 10% fetal calf serum (Sigma-Aldrich, USA), 50 units/ml penicillin, and also 50 μg/ml streptomycin (Sigma-Aldrich, USA) added thereto. The cells were cultured at 37° C. in a humidified atmosphere with 5% CO2.
The cells plated in DMEM were transfected with Lipofectamine 2000 (Invitrogen; Thermo Fisher Scientific, USA). Stable cells were selected in DMEM with 1 μg/ml puromycin (EMD Millipore, USA). Monoclonal cell lines were produced by means of fluorescence-activated cell sorting of a polyclonal cell population in 96-well plates using a MoFlo XDP cell sorter (Beckman Coulter, USA). […]
The plates were then incubated at 37° C. in a humidified atmosphere with 5% CO2. On the third day, the cells were imaged in an IN Cell Analyzer 6500HS system (Cytiva, USA) using the blue and green fluorescence channels, and analyzed by the IN Carta Image Analysis software (Cytiva, USA) which had been used to establish an algorithm for identifying intracellular aggregates in living cells. Four wells were used for each condition and 16 images were recorded per well and analyzed by a fully-automated algorithm in order to prevent distortions. […]
In order to validate the inhibitory effect of SVD-1a in cells, use was made of the α-synA53T-YFP cell system which stably expresses human α-syn with the familial A53T mutation, fused with YFP, in HEK293T cells, and the fluorescence-based detection of aggregates makes it possible to clearly show the strongly fluorescent spots within the cells against the background, intracellularly after seeding with PFF oligomers. […] Panels C, F and I show αSynA53T-YFP fluorescence. […]

full-length α-syn = full-length α-syn (Homo sapiens, UniProt P37840); assay: MST measurement of fluorophore-labeled peptides with full-length α-syn (FIG. 10); format: binding; conditions: 100 nM labeled peptide, PBS pH 7.4, 25° C., individual measurement
Experimental: The peptides were fluorescence labeled by means of cysteine-maleimide coupling. SVD-1_Cys and SVD 1a_Cys were fluorescence labeled at the C-terminus with a fivefold or tenfold molar excess of TCEP and CF633-PEG2-maleimide (Sigma-Aldrich, USA). The labeling reaction was carried out in 25 mM NaPi, PH 7.0, for 2 h at RT. The labeled peptides were purified at 25° C. using an Agilent 1260 Infinity II System and a C-18 RP-HPLC column (Zorbax 300 SB-C8/SB-C 18, Agilent, USA). The mobile phases consisted of A: water+0.1% TFA, and B: acetonitrile+0.1% TFA. The fluorescence-labeled peptides and proteins were eluted with a gradient of 5-40% (v/v) B in 30 min. The fluorescence-labeled products were fractionated using the absorption wavelength of the fluorophore (CF633: 633 nm) and the pooled samples were subsequently lyophilized and redissolved in the appropriate buffer. The protein concentrations were determined by means of UV-vis and the fluorescence-labeled samples were stored at −20° C.
The experiments for microscale thermophoresis (MST) were carried out using a Monolith NT.115 device (NanoTemper Technologies GmbH, GE). Fluorescence-labeled peptides were diluted in PBS, PH 7.4 to a final concentration of 100 nM. […] The data was evaluated with the thermophoresis effect, using the NT analysis software (version 1.5.41) supplied by the manufacturer. […]

## CC[C@@H](C)[C@@H](NC(=O)[C@@H](Cc1c[nH]cn1)NC(=O)[C@@H](CCC(=O)O)NC(=O)[C@@H](CCC(N)=O)NC(=O)[C@@H](Cc1c[nH]c2ccccc12)NC(=O)[C@@H](Cc1ccc(O)cc1)NC(=O)[C@H](NC(=O)[C@@H](CCC(=O)O)NC(=O)[C@@H](Cc1c[nH]cn1)NC(=O)[C@H](NC(=O)[C@H]1CCCN1C(=O)[C@@H](CC(C)C)NC(=O)[C@H](N)CCCNC(=N)N)[C@H](C)O)[C@H](C)O)C(=O)N[C@H](Cc1c[nH]c2ccccc12)C(=O)N[C@H](Cc1c[nH]cn1)C(=O)N[C@H](C)C(=O)N[C@H](CCCNC(=N)N)C(=O)N[C@H](CCCNC(=N)N)C(=O)N[C@H](CCCNC(=N)N)C(=O)N[C@H](CCCNC(=N)N)C(=O)N[C@H](CCCNC(=N)N)C(N)=O [SVD-1a, rlpthetywqehiwharrrrr] (H-[dR][dL][dP][dT][dH][dE][dT][dY][dW][dQ][dE][dH][dI][dW][dH][dA][dR][dR][dR][dR][dR]-NH2)
[1]
  solubility at 1 h: ≥ 1000 µM
[2]
  inhibition of α-syn aggregation in cells: inhibited α-syn aggregation in αSynA53T-YFP cells in a dose-dependent manner
full-length α-syn
  Kd: 390 nM
